Test results: patent US20130157954A1, “METHODS FOR TREATMENT OR PROPHYLAXIS OF KIDNEY OR LIVER DYSFUNCTION” (NPS PHARMACEUTICALS, INC., priority 2010, published 2013)

Assay: Example 1: liver biomarkers (total bilirubin, ALT, AST, ALP) in short bowel syndrome patients, every four weeks for 24 weeks; also sorted by >5% change from baseline
Type: in vivo, Human
Design: AST (SGOT) Change from Baseline Median / ALT (SGPT) Median / TOTAL BILIRUBIN Median / TOTAL BILIRUBIN Change from Baseline Median / ALT (SGPT) Change from Baseline Median / AST (SGOT) Median: unit not given here
Details: for ALKALINE PHOSPHATASE change from baseline −5% <= and <=5%, percent of patients / ALT (SGPT) change from baseline <−5%, number of patients / ALT (SGPT) change from baseline <−5%, percent of patients / ALT (SGPT) change from baseline >5%, number of patients / ALT (SGPT) change from baseline >5%, percent of patients / ALT (SGPT) change from baseline −5% <= and <=5%, number of patients / ALT (SGPT) change from baseline −5% <= and <=5%, percent of patients / AST (SGOT) change from baseline <−5%, number of patients / AST (SGOT) change from baseline <−5%, percent of patients / AST (SGOT) change from baseline >5%, number of patients / AST (SGOT) change from baseline >5%, percent of patients / AST (SGOT) change from baseline −5% <= and <=5%, number of patients / AST (SGOT) change from baseline −5% <= and <=5%, percent of patients / TOTAL BILIRUBIN change from baseline <−5%, number of patients / TOTAL BILIRUBIN change from baseline <−5%, percent of patients / TOTAL BILIRUBIN change from baseline >5%, number of patients / TOTAL BILIRUBIN change from baseline >5%, percent of patients / TOTAL BILIRUBIN change from baseline −5% <= and <=5%, number of patients / TOTAL BILIRUBIN change from baseline −5% <= and <=5%, percent of patients / ALKALINE PHOSPHATASE change from baseline <−5%, number of patients / ALKALINE PHOSPHATASE change from baseline <−5%, percent of patients / ALKALINE PHOSPHATASE change from baseline >5%, number of patients / ALKALINE PHOSPHATASE change from baseline >5%, percent of patients / ALKALINE PHOSPHATASE change from baseline −5% <= and <=5%, number of patients: 0.05 mg/kg/day
Method: Human patients with short bowel syndrome were divided into three groups: a control group (16 total individuals) to receive placebo, an experimental group (35 total individuals) to receive teduglutide at 0.05 mg/kg/day throughout the study, and an experimental group (32 total individuals) to receive teduglutide at 0.1 mg/kg/day throughout the study. Patients were treated by subcutaneous injection of placebo or the appropriate dose of teduglutide. As individuals with short bowel syndrome are likely to experience associated liver and kidney disease, known biomarkers of liver and kidney function were monitored every four weeks, for 24 weeks. The liver biomarkers tested included total bilirubin, ALT and AST and ALP. The kidney biomarkers tested included urea nitrogen, creatinine and GFR. Before administration of placebo or teduglutide, diagnostic biomarker levels were tested to establish a baseline for each individual.
To visualize the effect of GLP-2 on the levels of the diagnostic biomarkers, the average change from baseline was calculated for the placebo and teduglutide treated groups for each visit after a baseline was established. The average change from baseline of each group is depicted in FIGS. 1-7. The numerical figures for each diagnostic biomarker at each time point are depicted in Table 1.
The efficacy of teduglutide in treating liver dysfunction was further tested by sorting the data into two groups: individuals with abnormal baseline values of liver diagnostic biomarkers; and individuals with normal baseline values of liver diagnostic biomarkers. The mean diagnostic biomarker change from baseline for these two groups is shown for ALT (FIGS. 5 and 6) and AST (FIGS. 7 and 8). […] These changes were significant when compared to baseline levels for the group, and when compared to placebo (see FIGS. 5 and 7).
The raw data for this sorting is reproduced in Table 2 below.

CC[C@H](C)[C@H](NC(=O)[C@H](Cc1ccccc1)NC(=O)[C@H](CC(=O)O)NC(=O)[C@H](CCCNC(=N)N)NC(=O)[C@H](C)NC(=O)[C@H](C)NC(=O)[C@H](CC(C)C)NC(=O)[C@H](CC(N)=O)NC(=O)[C@H](CC(=O)O)NC(=O)[C@H](CC(C)C)NC(=O)[C@@H](NC(=O)[C@@H](NC(=O)[C@H](CC(N)=O)NC(=O)[C@H](CCSC)NC(=O)[C@H](CCC(=O)O)NC(=O)[C@H](CC(=O)O)NC(=O)[C@H](CO)NC(=O)[C@H](Cc1ccccc1)NC(=O)[C@H](CO)NC(=O)CNC(=O)[C@H](CC(=O)O)NC(=O)CNC(=O)[C@@H](N)Cc1c[nH]cn1)[C@@H](C)O)[C@@H](C)CC)C(=O)N[C@@H](CC(N)=O)C(=O)N[C@@H](Cc1c[nH]c2ccccc12)C(=O)N[C@@H](CC(C)C)C(=O)N[C@H](C(=O)N[C@@H](CCC(N)=O)C(=O)N[C@H](C(=O)N[C@@H](CCCCN)C(=O)N[C@H](C(=O)N[C@H](C(=O)N[C@@H](CC(=O)O)C(=O)O)[C@@H](C)O)[C@@H](C)CC)[C@@H](C)O)[C@@H](C)CC [teduglutide]
ALKALINE PHOSPHATASE change from baseline −5% <= and <=5%, percent of patients (week 12): (5.7%)
ALT (SGPT) change from baseline <−5%, number of patients (week 12): 19
ALT (SGPT) change from baseline <−5%, percent of patients (week 12): (54.3%)
ALT (SGPT) change from baseline >5%, number of patients (week 12): 4
ALT (SGPT) change from baseline >5%, percent of patients (week 12): (11.4%)
ALT (SGPT) change from baseline −5% <= and <=5%, number of patients (week 12): 4
ALT (SGPT) change from baseline −5% <= and <=5%, percent of patients (week 12): (11.4%)
AST (SGOT) change from baseline <−5%, number of patients (week 12): 19
AST (SGOT) change from baseline <−5%, percent of patients (week 12): (54.3%)
AST (SGOT) change from baseline >5%, number of patients (week 12): 5
AST (SGOT) change from baseline >5%, percent of patients (week 12): (14.3%)
AST (SGOT) change from baseline −5% <= and <=5%, number of patients (week 12): 3
AST (SGOT) change from baseline −5% <= and <=5%, percent of patients (week 12): (8.6%)
TOTAL BILIRUBIN change from baseline <−5%, number of patients (week 12): 14
TOTAL BILIRUBIN change from baseline <−5%, percent of patients (week 12): (40.0%)
TOTAL BILIRUBIN change from baseline >5%, number of patients (week 12): 6
TOTAL BILIRUBIN change from baseline >5%, percent of patients (week 12): (17.1%)
TOTAL BILIRUBIN change from baseline −5% <= and <=5%, number of patients (week 12): 4
TOTAL BILIRUBIN change from baseline −5% <= and <=5%, percent of patients (week 12): (11.4%)
ALKALINE PHOSPHATASE change from baseline <−5%, number of patients (week 16): 20
ALKALINE PHOSPHATASE change from baseline <−5%, percent of patients (week 16): (57.1%)
ALKALINE PHOSPHATASE change from baseline >5%, number of patients (week 16): 6
ALKALINE PHOSPHATASE change from baseline >5%, percent of patients (week 16): (17.1%)
ALKALINE PHOSPHATASE change from baseline −5% <= and <=5%, number of patients (week 16): 2
ALKALINE PHOSPHATASE change from baseline −5% <= and <=5%, percent of patients (week 16): (5.7%)
ALT (SGPT) change from baseline <−5%, number of patients (week 16): 16
ALT (SGPT) change from baseline <−5%, percent of patients (week 16): (45.7%)
ALT (SGPT) change from baseline >5%, number of patients (week 16): 12
ALT (SGPT) change from baseline >5%, percent of patients (week 16): (34.3%)
ALT (SGPT) change from baseline −5% <= and <=5%, number of patients (week 16): 0
ALT (SGPT) change from baseline −5% <= and <=5%, percent of patients (week 16): (0.0%)
AST (SGOT) change from baseline <−5%, number of patients (week 16): 14
AST (SGOT) change from baseline <−5%, percent of patients (week 16): (40.0%)
AST (SGOT) change from baseline >5%, number of patients (week 16): 8
AST (SGOT) change from baseline >5%, percent of patients (week 16): (22.9%)
AST (SGOT) change from baseline −5% <= and <=5%, number of patients (week 16): 6
AST (SGOT) change from baseline −5% <= and <=5%, percent of patients (week 16): (17.1%)
TOTAL BILIRUBIN change from baseline <−5%, number of patients (week 16): 14
TOTAL BILIRUBIN change from baseline <−5%, percent of patients (week 16): (40.0%)
TOTAL BILIRUBIN change from baseline >5%, number of patients (week 16): 9
TOTAL BILIRUBIN change from baseline >5%, percent of patients (week 16): (25.7%)
TOTAL BILIRUBIN change from baseline −5% <= and <=5%, number of patients (week 16): 3
TOTAL BILIRUBIN change from baseline −5% <= and <=5%, percent of patients (week 16): (8.6%)
ALKALINE PHOSPHATASE change from baseline <−5%, number of patients (week 20): 22
ALKALINE PHOSPHATASE change from baseline <−5%, percent of patients (week 20): (62.9%)
ALKALINE PHOSPHATASE change from baseline >5%, number of patients (week 20): 4
ALKALINE PHOSPHATASE change from baseline >5%, percent of patients (week 20): (11.4%)
ALKALINE PHOSPHATASE change from baseline −5% <= and <=5%, number of patients (week 20): 1
ALKALINE PHOSPHATASE change from baseline −5% <= and <=5%, percent of patients (week 20): (2.9%)
ALT (SGPT) change from baseline <−5%, number of patients (week 20): 17
ALT (SGPT) change from baseline <−5%, percent of patients (week 20): (48.6%)
ALT (SGPT) change from baseline >5%, number of patients (week 20): 9
ALT (SGPT) change from baseline >5%, percent of patients (week 20): (25.7%)
ALT (SGPT) change from baseline −5% <= and <=5%, number of patients (week 20): 1
ALT (SGPT) change from baseline −5% <= and <=5%, percent of patients (week 20): (2.9%)
AST (SGOT) change from baseline <−5%, number of patients (week 20): 17
AST (SGOT) change from baseline <−5%, percent of patients (week 20): (48.6%)
AST (SGOT) change from baseline >5%, number of patients (week 20): 6
AST (SGOT) change from baseline >5%, percent of patients (week 20): (17.1%)
AST (SGOT) change from baseline −5% <= and <=5%, number of patients (week 20): 4
AST (SGOT) change from baseline −5% <= and <=5%, percent of patients (week 20): (11.4%)
TOTAL BILIRUBIN change from baseline <−5%, number of patients (week 20): 12
TOTAL BILIRUBIN change from baseline <−5%, percent of patients (week 20): (34.3%)
TOTAL BILIRUBIN change from baseline >5%, number of patients (week 20): 7
TOTAL BILIRUBIN change from baseline >5%, percent of patients (week 20): (20.0%)
TOTAL BILIRUBIN change from baseline −5% <= and <=5%, number of patients (week 20): 6
TOTAL BILIRUBIN change from baseline −5% <= and <=5%, percent of patients (week 20): (17.1%)
ALKALINE PHOSPHATASE change from baseline <−5%, number of patients (week 24): 21
ALKALINE PHOSPHATASE change from baseline <−5%, percent of patients (week 24): (60.0%)
ALKALINE PHOSPHATASE change from baseline >5%, number of patients (week 24): 4
ALKALINE PHOSPHATASE change from baseline >5%, percent of patients (week 24): (11.4%)
ALKALINE PHOSPHATASE change from baseline −5% <= and <=5%, number of patients (week 24): 0
ALKALINE PHOSPHATASE change from baseline −5% <= and <=5%, percent of patients (week 24): (0.0%)
ALT (SGPT) change from baseline <−5%, number of patients (week 24): 18
ALT (SGPT) change from baseline <−5%, percent of patients (week 24): (51.4%)
ALT (SGPT) change from baseline >5%, number of patients (week 24): 4
ALT (SGPT) change from baseline >5%, percent of patients (week 24): (11.4%)
ALT (SGPT) change from baseline −5% <= and <=5%, number of patients (week 24): 4
ALT (SGPT) change from baseline −5% <= and <=5%, percent of patients (week 24): (11.4%)
AST (SGOT) change from baseline <−5%, number of patients (week 24): 17
AST (SGOT) change from baseline <−5%, percent of patients (week 24): (48.6%)
AST (SGOT) change from baseline >5%, number of patients (week 24): 6
AST (SGOT) change from baseline >5%, percent of patients (week 24): (17.1%)
AST (SGOT) change from baseline −5% <= and <=5%, number of patients (week 24): 3
AST (SGOT) change from baseline −5% <= and <=5%, percent of patients (week 24): (8.6%)
TOTAL BILIRUBIN change from baseline <−5%, number of patients (week 24): 8
TOTAL BILIRUBIN change from baseline <−5%, percent of patients (week 24): (22.9%)
TOTAL BILIRUBIN change from baseline >5%, number of patients (week 24): 10
TOTAL BILIRUBIN change from baseline >5%, percent of patients (week 24): (28.6%)
TOTAL BILIRUBIN change from baseline −5% <= and <=5%, number of patients (week 24): 4
TOTAL BILIRUBIN change from baseline −5% <= and <=5%, percent of patients (week 24): (11.4%)
ALT (SGPT) Change from Baseline Median (0.10 mg/kg/day, DW4): −6.5
ALT (SGPT) Median (0.10 mg/kg/day, DW4): 30.0
